Results on four compounds are retold here after ChEMBL document CHEMBL1781971, “Discovery of 5-(arenethynyl) hetero-monocyclic derivatives as potent inhibitors of BCR-ABL including the T315I gatekeeper mutant” (Bioorg Med Chem Lett, 2011).

Data set [1] can be described thus: Half life in rat at 5 mg/kg, iv. As to conditions: in vivo. It is filed as ADME, organism-based. More on the design: dose 5 mg/kg, route intravenous.
In data set [2] the target is Tyrosine-protein kinase ABL1 (Homo sapiens, UniProt P00519, T315I).
In data set [3] the target is Tyrosine-protein kinase ABL1 (Homo sapiens, UniProt P00519).
Data set [4] is described as follows: cells. The settings on record: Mus musculus, BaF3.
Description: Antiproliferative activity against BCR-ABL-negative parental mouse BA/F3 cells
Data set [5] has as its system Rattus norvegicus. In words: AUC in rat at 15 mg/kg, po. As to conditions: in vivo. More on the design: dose 15 mg/kg, route oral. In kind it is ADME, organism-based, Plasma.
Data set [6] in a line: Cmax in rat at 15 mg/kg, po. As to conditions: in vivo. It is filed as ADME, organism-based. Details: dose 15 mg/kg, route oral.
Data set [7] in a line: cells. The settings on record: Mus musculus, BaF3. This is another data set of the same source.
Description: Antiproliferative activity against mouse BA/F3 cells expressing wild type BCR-ABL
Data set [8] is described as follows: Plasma concentration in mouse after 6 hrs at 30 mg/kg, po. It is filed as ADME, organism-based. More on the design: dose 30 mg/kg, route oral.
A short description of data set [9]: Cmax in rat at 5 mg/kg, iv. In kind it is ADME, organism-based. More on the design: dose 5 mg/kg, route intravenous. The settings on record: in vivo.
Data set [10] is described as follows: cells. As to conditions: Mus musculus, BaF3. The source holds these as a separate data set.
Data set [11] can be described thus: Volume of distribution in rat at 5 mg/kg, iv. It is filed as ADME, organism-based. More on the design: dose 5 mg/kg, route intravenous. The settings on record: in vivo.
Data set [12] can be described thus: Oral bioavailability in rat at 15 mg/kg. In kind it is ADME, organism-based. The settings on record: in vivo.
The subject of data set [13] is Rattus norvegicus. In words: AUC in rat at 5 mg/kg, iv. It is filed as ADME, organism-based, Plasma. Details: dose 5 mg/kg, route intravenous. As to conditions: in vivo.
Data set [14] can be described thus: Half life in rat at 15 mg/kg, po. In kind it is ADME, organism-based. More on the design: dose 15 mg/kg, route oral. As to conditions: in vivo.
Data set [15] can be described thus: Clearance in rat at 5 mg/kg, iv. In kind it is ADME, organism-based. Details: dose 5 mg/kg, route intravenous. The settings on record: in vivo.
Data set [16] addresses Fibroblast growth factor receptor 4 (Homo sapiens, UniProt P22455). As to the kind of experiment: Inhibition of human FGFR4 using poly[Glu:Tyr] peptide substrate by Hotspot assay.
Data set [17] concerns the target Macrophage colony-stimulating factor 1 receptor (Homo sapiens, UniProt P07333). As to the kind of experiment: Inhibition of human FMS using poly[Glu:Tyr] by Hotspot assay.
In a further data set the target is Ephrin type-A receptor 7 (Homo sapiens, UniProt Q15375). In words: Inhibition of human EPHA7 using poly[Glu:Tyr] peptide substrate by Hotspot assay.
Data set [18] deals with Receptor-type tyrosine-protein kinase FLT3 (Homo sapiens, UniProt P36888).
In data set [19] the target is Tyrosine-protein kinase JAK2 (Homo sapiens, UniProt O60674). In words: Inhibition of human JAK2 using poly[Glu:Tyr] by Hotspot assay.
For data set [20], the target named is Cyclin-dependent kinase 2/cyclin E1 (Homo sapiens, UniProt P24941). As to the kind of experiment: Inhibition of human CDK2/Cyclin E using Histone H1 substrate by Hotspot assay. It is filed as protein-complex assay.
In data set [21] the target is Serine/threonine-protein kinase B-raf (Homo sapiens, UniProt P15056). In words: Inhibition of human BRAF using MEK1 (K97R), ATP substrate by Hotspot assay.
For a further data set, the target named is Aurora kinase A (Homo sapiens, UniProt O14965). In words: Inhibition of human Aurora A using H-LRRASLG peptide substrate by Hotspot assay.
A further data set deals with Insulin receptor (Homo sapiens, UniProt P06213). In words: Inhibition of human IR using poly[Glu:Tyr] by Hotspot assay.
Data set [22] has as its target Tyrosine-protein kinase JAK3 (Homo sapiens, UniProt P52333). As to the kind of experiment: Inhibition of human JAK3 using GEEEEYFELVKKKK peptide substrate by Hotspot assay.
Data set [23] addresses Fibroblast growth factor receptor 3 (Homo sapiens, UniProt P22607). As to the kind of experiment: Inhibition of human FGFR3 using poly[Glu:Tyr] peptide substrate by Hotspot assay.
The target of data set [24] is Proto-oncogene tyrosine-protein kinase Src (Homo sapiens, UniProt P12931). In words: Inhibition of human Src using poly[Glu:Tyr] by Hotspot assay.
In data set [25] the target is Vascular endothelial growth factor receptor 2 (Homo sapiens, UniProt P35968). As to the kind of experiment: Inhibition of human VEGFR2 using poly[Glu:Tyr] by Hotspot assay.
A short description of data set [26]: Antitumor activity against mouse BA/F3 cells expressing ABL T315I mutant xenografted in mouse assessed as increase in overall survival at 30 mg/kg, po QD for 19 days relative to control. In kind it is functional, BaF3.
Data set [27] has as its target Hepatocyte growth factor receptor (Homo sapiens, UniProt P08581). As to the kind of experiment: Inhibition of human c-Met using KKKSPGEYVNIEFG peptide substrate by Hotspot assay.
Data set [28] has as its target Tyrosine-protein kinase Lyn (Homo sapiens, UniProt P07948). In words: Inhibition of human LYN using poly[Glu:Tyr] by Hotspot assay.
Another data set addresses Angiopoietin-1 receptor (Homo sapiens, UniProt Q02763). As to the kind of experiment: Inhibition of human Tie2/TEK using poly[Glu:Tyr] by Hotspot assay.
Data set [29] deals with Platelet-derived growth factor receptor alpha (Homo sapiens, UniProt P16234). As to the kind of experiment: Inhibition of human PDGFRalpha using poly[Glu:Tyr] by Hotspot assay.
In data set [30] the target is Mast/stem cell growth factor receptor Kit (Homo sapiens, UniProt P10721). In words: Inhibition of human c-Kit using poly[Glu:Tyr] by Hotspot assay.
Data set [31] has as its target Vascular endothelial growth factor receptor 1 (Homo sapiens, UniProt P17948). In words: Inhibition of human VEGFR1 using poly[Glu:Tyr] by Hotspot assay.
Data set [32] concerns the target Fibroblast growth factor receptor 1 (Homo sapiens, UniProt P11362). As to the kind of experiment: Inhibition of human FGFR1 using KKKSPGEYVNIEFG peptide substrate by Hotspot assay.
In data set [33] the target is Tyrosine-protein kinase JAK1 (Homo sapiens, UniProt P23458). In words: Inhibition of human JAK1 using poly[Glu:Tyr] by Hotspot assay.
Data set [34] deals with Fibroblast growth factor receptor 2 (Homo sapiens, UniProt P21802). In words: Inhibition of human FGFR2 using poly[Glu:Tyr] peptide substrate by Hotspot assay.
For another data set, the target named is Ephrin type-A receptor 2 (Homo sapiens, UniProt P29317). In words: Inhibition of human EPHA2 using poly[Glu:Tyr] peptide substrate by Hotspot assay.
Data set [35] addresses Serine/threonine-protein kinase B-raf (Homo sapiens, UniProt P15056, V600E). In words: Inhibition of human BRAF V599E mutant using MEK1 (K97R), ATP substrate by Hotspot assay.
A further data set addresses Ephrin type-A receptor 3 (Homo sapiens, UniProt P29320). In words: Inhibition of human EPHA3 using poly[Glu:Tyr] peptide substrate by Hotspot assay.

Sequence of Macrophage colony-stimulating factor 1 receptor (P07333 whole entry, looked up): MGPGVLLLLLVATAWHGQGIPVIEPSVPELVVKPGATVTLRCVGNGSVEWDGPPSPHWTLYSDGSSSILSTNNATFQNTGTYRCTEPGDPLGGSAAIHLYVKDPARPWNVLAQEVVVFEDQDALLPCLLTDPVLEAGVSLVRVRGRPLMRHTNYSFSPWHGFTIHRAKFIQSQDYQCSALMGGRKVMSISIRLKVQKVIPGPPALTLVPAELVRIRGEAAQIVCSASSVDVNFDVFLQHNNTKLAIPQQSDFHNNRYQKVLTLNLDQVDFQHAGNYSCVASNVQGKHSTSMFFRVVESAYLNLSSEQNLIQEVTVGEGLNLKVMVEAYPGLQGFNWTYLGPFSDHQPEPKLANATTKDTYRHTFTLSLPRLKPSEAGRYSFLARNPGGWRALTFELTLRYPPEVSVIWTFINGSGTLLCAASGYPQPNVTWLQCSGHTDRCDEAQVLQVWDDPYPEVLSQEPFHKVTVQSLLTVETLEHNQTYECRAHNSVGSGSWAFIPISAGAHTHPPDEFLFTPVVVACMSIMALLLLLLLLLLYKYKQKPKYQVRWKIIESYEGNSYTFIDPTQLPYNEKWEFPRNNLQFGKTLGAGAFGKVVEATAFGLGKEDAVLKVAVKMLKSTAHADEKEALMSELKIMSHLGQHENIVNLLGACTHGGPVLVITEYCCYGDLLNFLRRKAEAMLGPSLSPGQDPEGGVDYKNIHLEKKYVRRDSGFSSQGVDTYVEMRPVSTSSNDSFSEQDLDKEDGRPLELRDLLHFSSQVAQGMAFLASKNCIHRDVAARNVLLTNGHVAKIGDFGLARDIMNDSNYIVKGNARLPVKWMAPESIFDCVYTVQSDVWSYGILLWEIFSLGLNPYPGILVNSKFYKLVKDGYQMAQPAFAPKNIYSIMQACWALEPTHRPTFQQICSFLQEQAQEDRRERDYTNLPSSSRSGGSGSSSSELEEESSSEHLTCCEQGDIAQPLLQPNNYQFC
Sequence of Proto-oncogene tyrosine-protein kinase Src (P12931 2-536 limits assumed): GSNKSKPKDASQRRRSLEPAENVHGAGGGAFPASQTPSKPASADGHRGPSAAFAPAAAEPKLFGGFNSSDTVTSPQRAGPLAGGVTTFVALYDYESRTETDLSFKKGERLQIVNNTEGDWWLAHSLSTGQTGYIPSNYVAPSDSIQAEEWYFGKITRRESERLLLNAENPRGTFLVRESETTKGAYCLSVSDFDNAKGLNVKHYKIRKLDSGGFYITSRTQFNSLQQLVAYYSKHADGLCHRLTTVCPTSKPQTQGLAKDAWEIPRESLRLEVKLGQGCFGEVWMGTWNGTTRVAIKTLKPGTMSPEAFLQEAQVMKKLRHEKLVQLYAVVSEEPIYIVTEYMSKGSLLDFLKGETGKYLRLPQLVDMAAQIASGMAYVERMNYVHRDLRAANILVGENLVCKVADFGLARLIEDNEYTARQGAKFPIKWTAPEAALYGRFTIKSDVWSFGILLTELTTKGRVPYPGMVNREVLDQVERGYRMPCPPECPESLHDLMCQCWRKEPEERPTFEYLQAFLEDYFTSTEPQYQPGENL
Sequence of Fibroblast growth factor receptor 3 (P22607 whole entry): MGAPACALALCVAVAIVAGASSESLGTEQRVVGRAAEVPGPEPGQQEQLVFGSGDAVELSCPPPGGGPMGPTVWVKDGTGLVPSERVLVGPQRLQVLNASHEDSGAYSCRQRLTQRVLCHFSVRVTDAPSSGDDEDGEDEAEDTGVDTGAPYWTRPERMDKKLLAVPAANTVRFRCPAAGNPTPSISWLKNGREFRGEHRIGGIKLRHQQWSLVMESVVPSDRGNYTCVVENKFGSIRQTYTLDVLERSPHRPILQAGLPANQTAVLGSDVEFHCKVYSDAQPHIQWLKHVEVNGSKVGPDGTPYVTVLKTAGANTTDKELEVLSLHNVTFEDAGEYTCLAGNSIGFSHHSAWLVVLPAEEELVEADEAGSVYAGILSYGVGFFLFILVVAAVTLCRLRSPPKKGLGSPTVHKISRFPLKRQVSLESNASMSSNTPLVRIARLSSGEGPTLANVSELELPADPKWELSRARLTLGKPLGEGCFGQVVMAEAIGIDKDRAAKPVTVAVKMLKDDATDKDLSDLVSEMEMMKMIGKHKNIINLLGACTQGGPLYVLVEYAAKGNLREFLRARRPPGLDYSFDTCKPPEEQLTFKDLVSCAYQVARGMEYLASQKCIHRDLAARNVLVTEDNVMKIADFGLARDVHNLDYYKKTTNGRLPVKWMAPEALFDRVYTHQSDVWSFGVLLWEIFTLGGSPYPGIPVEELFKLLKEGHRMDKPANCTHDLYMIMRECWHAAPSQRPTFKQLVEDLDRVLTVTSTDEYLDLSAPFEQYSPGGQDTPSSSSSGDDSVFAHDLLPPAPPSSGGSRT
Sequence of Hepatocyte growth factor receptor (P08581 whole entry): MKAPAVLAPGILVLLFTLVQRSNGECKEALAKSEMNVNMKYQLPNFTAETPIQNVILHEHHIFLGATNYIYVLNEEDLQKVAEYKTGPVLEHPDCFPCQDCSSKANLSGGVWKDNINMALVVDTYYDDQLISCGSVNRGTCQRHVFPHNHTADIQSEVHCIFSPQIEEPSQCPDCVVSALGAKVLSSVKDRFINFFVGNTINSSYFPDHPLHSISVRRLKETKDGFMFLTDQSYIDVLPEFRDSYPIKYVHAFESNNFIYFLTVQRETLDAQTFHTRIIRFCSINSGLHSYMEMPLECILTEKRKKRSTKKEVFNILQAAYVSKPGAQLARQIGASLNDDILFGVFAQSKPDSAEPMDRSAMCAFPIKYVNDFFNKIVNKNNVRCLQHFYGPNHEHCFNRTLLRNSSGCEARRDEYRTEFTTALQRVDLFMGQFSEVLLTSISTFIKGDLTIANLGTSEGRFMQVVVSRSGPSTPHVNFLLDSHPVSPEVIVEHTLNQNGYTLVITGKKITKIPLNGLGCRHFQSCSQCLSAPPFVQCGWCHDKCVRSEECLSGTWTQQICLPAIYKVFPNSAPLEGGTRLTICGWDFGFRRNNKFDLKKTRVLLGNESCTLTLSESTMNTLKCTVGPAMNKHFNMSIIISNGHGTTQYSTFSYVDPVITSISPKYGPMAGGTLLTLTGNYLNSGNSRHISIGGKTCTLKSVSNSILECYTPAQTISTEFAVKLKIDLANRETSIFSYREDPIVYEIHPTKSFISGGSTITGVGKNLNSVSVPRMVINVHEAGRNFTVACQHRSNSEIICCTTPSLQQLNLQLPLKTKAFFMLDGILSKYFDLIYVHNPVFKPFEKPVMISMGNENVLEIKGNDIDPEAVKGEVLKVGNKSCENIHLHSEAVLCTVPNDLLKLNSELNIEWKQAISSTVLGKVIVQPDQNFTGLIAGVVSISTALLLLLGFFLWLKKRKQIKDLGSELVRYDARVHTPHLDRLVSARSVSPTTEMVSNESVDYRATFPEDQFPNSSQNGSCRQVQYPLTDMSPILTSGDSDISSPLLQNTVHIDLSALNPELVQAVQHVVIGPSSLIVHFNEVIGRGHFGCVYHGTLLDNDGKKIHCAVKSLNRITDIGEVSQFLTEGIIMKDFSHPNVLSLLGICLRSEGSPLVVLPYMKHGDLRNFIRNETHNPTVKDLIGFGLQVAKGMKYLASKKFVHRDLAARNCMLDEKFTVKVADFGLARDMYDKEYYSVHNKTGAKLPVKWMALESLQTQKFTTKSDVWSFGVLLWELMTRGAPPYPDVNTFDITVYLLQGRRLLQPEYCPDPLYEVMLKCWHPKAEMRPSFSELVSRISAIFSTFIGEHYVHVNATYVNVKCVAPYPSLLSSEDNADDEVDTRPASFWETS
Sequence of Vascular endothelial growth factor receptor 2 (P35968 whole entry): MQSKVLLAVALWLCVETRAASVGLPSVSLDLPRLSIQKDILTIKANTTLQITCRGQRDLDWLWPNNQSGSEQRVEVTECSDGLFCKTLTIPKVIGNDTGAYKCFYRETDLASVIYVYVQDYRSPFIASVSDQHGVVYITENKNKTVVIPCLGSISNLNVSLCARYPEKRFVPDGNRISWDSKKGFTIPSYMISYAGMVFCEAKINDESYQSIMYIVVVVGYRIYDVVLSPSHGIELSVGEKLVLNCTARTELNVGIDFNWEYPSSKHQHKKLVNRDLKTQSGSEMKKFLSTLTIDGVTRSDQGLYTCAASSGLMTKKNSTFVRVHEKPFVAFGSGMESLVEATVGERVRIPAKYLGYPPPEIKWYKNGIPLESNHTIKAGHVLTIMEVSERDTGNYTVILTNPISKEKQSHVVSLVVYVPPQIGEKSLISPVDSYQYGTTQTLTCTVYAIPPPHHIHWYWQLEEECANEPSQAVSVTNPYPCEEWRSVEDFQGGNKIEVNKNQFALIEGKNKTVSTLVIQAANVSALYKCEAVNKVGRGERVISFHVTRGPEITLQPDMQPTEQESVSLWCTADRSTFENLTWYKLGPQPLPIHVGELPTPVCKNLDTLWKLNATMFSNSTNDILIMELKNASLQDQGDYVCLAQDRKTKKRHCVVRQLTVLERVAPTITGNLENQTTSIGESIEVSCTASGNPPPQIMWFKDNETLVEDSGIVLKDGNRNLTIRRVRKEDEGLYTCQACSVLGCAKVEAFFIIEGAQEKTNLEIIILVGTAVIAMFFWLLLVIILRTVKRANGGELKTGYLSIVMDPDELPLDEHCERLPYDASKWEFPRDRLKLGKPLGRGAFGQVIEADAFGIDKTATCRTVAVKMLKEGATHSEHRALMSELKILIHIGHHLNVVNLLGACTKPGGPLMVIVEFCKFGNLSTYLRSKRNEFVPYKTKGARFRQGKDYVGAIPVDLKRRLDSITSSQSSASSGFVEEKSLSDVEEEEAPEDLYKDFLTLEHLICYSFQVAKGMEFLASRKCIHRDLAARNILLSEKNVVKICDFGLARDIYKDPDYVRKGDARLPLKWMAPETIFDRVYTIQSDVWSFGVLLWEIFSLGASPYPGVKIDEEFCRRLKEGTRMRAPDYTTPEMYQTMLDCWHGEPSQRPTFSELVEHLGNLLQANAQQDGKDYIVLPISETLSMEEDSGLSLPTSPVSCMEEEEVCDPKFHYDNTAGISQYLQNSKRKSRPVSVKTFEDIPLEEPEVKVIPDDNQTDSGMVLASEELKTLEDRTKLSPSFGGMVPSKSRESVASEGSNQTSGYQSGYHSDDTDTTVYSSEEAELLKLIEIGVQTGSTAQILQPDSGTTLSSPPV

On to `Cc1ccc(C(=O)Nc2ccc(CN3CCN(CCO)CC3)c(C(F)(F)F)c2)cc1C#Cc1cnc(C(N)=O)n1C`, for which the values for the half-life in data set [1] and in data set [14] were 3.5 h and 6.3 h, respectively. Further, the IC50 in data set [2] stood at 36 nM; in [3] it was 3.6 nM; in “cells [4]”, 1320 nM; in “cells [7]”, 0.61 nM; in the data set “cells [10]”, 5.8 nM. Besides, the figures for the AUC with Rattus norvegicus [5] and in the data set with Rattus norvegicus [13] were 962 h/ng/mL and 2320 h/ng/mL, respectively. Further, the Cmax in data set [6] was found to be 61.4 ng/mL; in [9], 598 ng/mL. Also, in [8], the concentration at 6 h amounted to 333 ng/mL. In data set [11], the Vd worked out at 11 L/kg. In data set [12], this compound showed a bioavailability of 14%. The compound also gave a clearance in data set [15] of 35.8 mL/min/kg.

With `Cc1ccc(C(=O)Nc2ccc(CN3CCN(C)CC3)c(C(F)(F)F)c2)cc1C#Cc1cncnc1`, the half-life in [1] is 6.2 h; in data set [14], 10 h. The 50% inhibitory concentration (IC50) is 435 nM in [2]; 62.7 nM in data set [3]; 2820 nM in “cells [4]”; 3.1 nM in “cells [7]”; 65 nM in “cells [10]”. The results for the AUC in the data set with Rattus norvegicus [5] and in the data set with Rattus norvegicus [13] were 13559 h/ng/mL and 5308 h/ng/mL, respectively. In addition, the Cmax in [6] came out at 900 ng/mL; in data set [9], 822 ng/mL. Besides, the concentration at 6 h in data set [8] was 771 ng/mL. Further, the Vd in data set [11] was found to be 8.5 L/kg. This compound also showed a bioavailability in data set [12] of 85%. In [15], this compound showed a clearance of 15.7 mL/min/kg.

In the case of `Cc1ccc(C(=O)Nc2ccc(CN3CCN(C)CC3)c(C(F)(F)F)c2)cc1C#Cc1cnc(C(N)=O)n1C`, the half-life was 7 h in data set [1] and 8 h in [14]. For the same compound, the IC50 was 25 nM in data set [2]; 3.6 nM in [3]; 787 nM in “cells [4]”; 1.3 nM in “cells [7]”; 7.6 nM in the data set “cells [10]”. The values for the AUC in the data set on Rattus norvegicus [5] and with Rattus norvegicus [13] were 4144 h/ng/mL and 5445 h/ng/mL, respectively. Further, the Cmax in data set [6] came to 258 ng/mL; in data set [9], 627 ng/mL. In data set [8], this compound gave a concentration at 6 h of 358 ng/mL. In data set [11], this compound displayed a Vd of 9.3 L/kg. This compound also gave a bioavailability in [12] of 25.3%. For the same compound, the clearance in [15] was 15.3 mL/min/kg.

As for `CNC(=O)c1ncc(C#Cc2cc(C(=O)Nc3ccc(CN4CCN(CCO)CC4)c(C(F)(F)F)c3)ccc2C)n1C`, the IC50 amounted to 34 nM in data set [16]; 7.2 nM in [17]; 4.2 nM against Ephrin type-A receptor 7; 2 nM in data set [18]; 536 nM in data set [19]; 6.4 nM in data set [20]. Also, the IC50 is 20 nM in data set [21]; > 3000 nM on Aurora kinase A; > 3000 nM on Insulin receptor; 3090 nM in the data set “cells [4]”; 57.5 nM in data set [22]; 10.5 nM in data set [23]. In addition, the IC50 in data set [24] was 4 nM; in “cells [7]” it was 1.3 nM; in [25] it was 2.3 nM; in [27], > 3000 nM; in data set [28], < 0.15 nM; against Angiopoietin-1 receptor it was 2.2 nM. The IC50 in data set [29] was 1.3 nM; in [30] it was > 3000 nM; in the data set “cells [10]”, 8.4 nM; in data set [31], 5.2 nM; in [32] it was 1.8 nM; in data set [33] it was 55.3 nM. For the same compound, the IC50 in [34] came to 1.5 nM; at Ephrin type-A receptor 2 it was 0.6 nM; in data set [35], 26 nM; against Ephrin type-A receptor 3, 1.2 nM. The half-life in data set [1] is 5.6 h; in data set [14] it was 10 h. Besides, the AUC came out at 6586 h/ng/mL with Rattus norvegicus [5] and 970 h/ng/mL in the data set with Rattus norvegicus [13]. In addition, the Cmax came to 344 ng/mL in data set [6] and 200 ng/mL in [9]. Also, the concentration at 6 h in data set [8] amounted to 1150 ng/mL. Besides, in [26], the Activity is listed as 130%. This compound registered a Vd in data set [11] of 8.2 L/kg. In data set [12], this compound showed a bioavailability of 45%. Moreover, in data set [15], the clearance was 17.2 mL/min/kg.
